Experiments:
[1] = organism: Homo sapiens; test: Selectivity index, ratio of Ki for human recombinant CB2 receptor to Ki for human recombinant CB1 receptor
[2] = biological target: Cannabinoid receptor 2 (Homo sapiens, UniProt P34972); test: Displacement of [3H]CP-55940 from human recombinant CB2 receptor expressed in HEK cells; type: cell-based, HEK293
[3] = biological target: Cannabinoid receptor 1 (Homo sapiens, UniProt P21554); test: biochemical; type: cell-based, HEK293
Chain of Cannabinoid receptor 1 (P21554 whole entry): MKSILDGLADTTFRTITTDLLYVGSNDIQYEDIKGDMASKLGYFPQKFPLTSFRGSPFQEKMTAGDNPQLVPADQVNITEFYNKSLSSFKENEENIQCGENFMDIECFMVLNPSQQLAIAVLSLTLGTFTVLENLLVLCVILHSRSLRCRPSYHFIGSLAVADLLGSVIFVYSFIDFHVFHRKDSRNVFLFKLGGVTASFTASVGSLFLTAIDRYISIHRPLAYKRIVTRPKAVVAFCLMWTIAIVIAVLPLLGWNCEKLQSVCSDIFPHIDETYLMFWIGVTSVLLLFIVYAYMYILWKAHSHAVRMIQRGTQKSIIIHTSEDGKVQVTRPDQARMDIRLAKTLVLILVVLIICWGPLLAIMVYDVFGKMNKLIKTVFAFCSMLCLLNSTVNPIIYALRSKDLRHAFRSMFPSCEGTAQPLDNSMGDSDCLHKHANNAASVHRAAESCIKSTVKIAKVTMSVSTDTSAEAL
Description: Displacement of [3H]CP-55940 from human recombinant CB1 receptor expressed in HEK cells

Chain of Cannabinoid receptor 2 (P34972 whole entry): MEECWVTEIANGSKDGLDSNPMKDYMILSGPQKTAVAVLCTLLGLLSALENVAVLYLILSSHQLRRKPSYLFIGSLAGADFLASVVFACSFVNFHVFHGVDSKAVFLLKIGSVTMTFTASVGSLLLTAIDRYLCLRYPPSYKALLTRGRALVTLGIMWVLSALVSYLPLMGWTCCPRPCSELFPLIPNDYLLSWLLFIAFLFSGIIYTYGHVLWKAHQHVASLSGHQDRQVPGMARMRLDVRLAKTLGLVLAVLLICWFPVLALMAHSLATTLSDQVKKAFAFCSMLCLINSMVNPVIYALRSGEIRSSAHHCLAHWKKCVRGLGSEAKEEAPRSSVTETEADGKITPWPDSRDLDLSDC

| Structure (SMILES) | Ratio Ki [1] | Ki [2] [nM] | Ki [3] [nM] |
| --- | --- | --- | --- |
| Cc1c(C(=O)N[C@@H](C)C2CCCCC2)nn(-c2ccc(Cl)c(Cl)c2)c1-n1cccc1 | 0.71 | 2.4 | 3.4 |
| Cc1c(C(=O)NC2CCCCCC2)nn(-c2ccc(F)cc2F)c1-n1cccc1 | 0.36 | 200 | 560 |
| Cc1c(C(=O)NCCc2ccc(Cl)c(Cl)c2)nn(-c2ccc(F)cc2F)c1-n1c(C)ccc1C | > 73 | > 3940 | 54 |
| Cc1c(C(=O)NCCc2ccc(Cl)cc2)nn(-c2ccc(Cl)cc2Cl)c1-n1c(C)ccc1C | > 131 | > 3940 | 30 |
| Cc1c(C(=O)NCc2ccc(Cl)cc2)nn(-c2ccc(Cl)cc2Cl)c1-n1cccc1 | 6.71 | 940 | 140 |
| Cc1c(C(=O)NC2CCCC2)nn(-c2ccc(Cl)c(Cl)c2)c1-n1cccc1 | 0.24 | 12 | 50 |
| Cc1c(C(=O)NCc2ccc(Cl)cc2)nn(-c2ccc(F)cc2F)c1-n1cccc1 | 10 | 3400 | 340 |
| Cc1c(C(=O)NC23CC4CC(CC(C4)C2)C3)nn(-c2ccc(Cl)c(Cl)c2)c1-n1cccc1 | 0.65 | 20 | 31 |
| COc1ccc(CCNC(=O)c2nn(-c3ccc(Cl)cc3Cl)c(-n3c(C)ccc3C)c2C)cc1Cl | 31.1 | 3480 | 112 |
| COc1cc(CNC(=O)c2nn(-c3ccc(Cl)cc3Cl)c(-n3c(C)ccc3C)c2C)c(Br)c(OC)c1OC | 3.84 | 553 | 144 |
| Cc1c(C(=O)NC2CCCCCC2)nn(-c2ccc(Cl)c(Cl)c2)c1-n1cccc1 | 0.23 | 1.3 | 5.6 |
| Cc1c(C(=O)NC2CCCCC2)nn(-c2ccc(Cl)c(Cl)c2)c1-n1cccc1 | 0.3 |  |  |
| Cc1c(C(=O)N[C@H](C)C2CCCCC2)nn(-c2ccc(Cl)c(Cl)c2)c1-n1cccc1 | 0.11 | 1.6 | 14 |
| COc1ccc(CCNC(=O)c2nn(-c3ccc(Cl)cc3Cl)c(-n3cccc3)c2C)cc1Cl | 7.84 | 2890 | 368 |
| Cc1c(C(=O)NCCc2ccc(Cl)c(Cl)c2)nn(-c2ccc(F)cc2F)c1-n1cccc1 | 4.16 | 1290 | 310 |
| Cc1c(C(=O)NCc2ccc(Cl)cc2)nn(-c2ccc(F)cc2F)c1-n1c(C)ccc1C | > 70.4 | > 3940 | 56 |
| Cc1c(C(=O)Nc2ccc(Cl)cc2)nn(-c2ccc(Cl)cc2Cl)c1-n1cccc1 | 0.67 | 80 | 120 |
| Cc1c(C(=O)NC2CCCCCC2)nn(-c2ccc(Cl)cc2Cl)c1-n1c(C)ccc1C | 1.43 | 80 | 56 |
| Cc1c(C(=O)NCCc2ccc(Cl)cc2)nn(-c2ccc(Cl)c(Cl)c2)c1-n1c(C)ccc1C | > 10.1 | > 3940 | 390 |
| Cc1c(C(=O)NC2CCCC2)nn(-c2ccc(F)cc2F)c1-n1cccc1 | 0.46 | 1100 | 2400 |
| Cc1c(C(=O)Nc2ccc(Cl)cc2)nn(-c2ccc(Cl)c(Cl)c2)c1-n1c(C)ccc1C |  | > 3940 | > 2820 |
| Cc1c(C(=O)NC2CCCCCC2)nn(-c2ccc(Cl)c(Cl)c2)c1-n1c(C)ccc1C | 0.35 | 4.2 | 12 |
| Cc1c(C(=O)NCCc2ccc(Cl)c(Cl)c2)nn(-c2ccc(Cl)cc2Cl)c1-n1cccc1 | > 25.1 | > 3940 | 157 |
| COc1cc(CNC(=O)c2nn(-c3ccc(Cl)cc3Cl)c(-n3cccc3)c2C)c(Br)c(OC)c1OC | 2.68 | 609 | 227 |
| Cc1c(C(=O)NCCc2ccc(Cl)cc2Cl)nn(-c2ccc(Cl)cc2Cl)c1-n1cccc1 | > 18.1 | > 3940 | 218 |
| Cc1c(C(=O)NC2CCCC2)nn(-c2ccc(Cl)cc2Cl)c1-n1cccc1 | 2.02 | 170 | 84 |

| Structure (SMILES) | Ratio Ki [1] | Ki [2] [nM] | Ki [3] [nM] |
| --- | --- | --- | --- |
| COc1cc(CNC(=O)c2nn(-c3ccc(F)cc3F)c(-n3c(C)ccc3C)c2C)c(Br)c(OC)c1OC | 2.26 | 373 | 165 |
| Cc1c(C(=O)Nc2ccc(Cl)cc2)nn(-c2ccc(Cl)cc2Cl)c1-n1c(C)ccc1C | > 41 | > 3940 | 96 |
| Cc1c(C(=O)NC(C)c2ccccc2)nn(-c2ccc(Cl)c(Cl)c2)c1-n1c(C)ccc1C (centres undefined) | 0.071 | 5.7 | 80 |
| Cc1c(C(=O)Nc2ccc(Cl)cc2)nn(-c2ccc(Cl)c(Cl)c2)c1-n1cccc1 | 0.61 | 790 | 1300 |
| Cc1c(C(=O)NC2CCCC2)nn(-c2ccc(F)cc2F)c1-n1c(C)ccc1C | 1.07 | 900 | 840 |
| Cc1c(C(=O)Nc2ccc(Cl)cc2)nn(-c2ccc(F)cc2F)c1-n1c(C)ccc1C | > 7.04 | > 3940 | 560 |
| COc1ccc(CCNC(=O)c2nn(-c3ccc(F)cc3F)c(-n3cccc3)c2C)cc1Cl | 2.05 | 1940 | 948 |
| Cc1c(C(=O)NC2CCCCCC2)nn(-c2ccc(Cl)cc2Cl)c1-n1cccc1 | 1 | 20 | 20 |
| Cc1c(C(=O)NC23CC4CC(CC(C4)C2)C3)nn(-c2ccc(Cl)c(Cl)c2)c1-n1c(C)ccc1C | 2.14 | 12 | 5.6 |
| Cc1c(C(=O)Nc2ccc(Cl)cc2)nn(-c2ccc(F)cc2F)c1-n1cccc1 | 3.76 | > 3940 | 2100 |
| Cc1c(C(=O)NCCc2ccc(Cl)cc2)nn(-c2ccc(F)cc2F)c1-n1cccc1 | > 49.2 | > 3940 | 80 |
| Cc1c(C(=O)NCCc2ccc(Cl)cc2)nn(-c2ccc(Cl)c(Cl)c2)c1-n1cccc1 | 5 | 1200 | 240 |
| Cc1c(C(=O)NCCc2ccc(Cl)cc2Cl)nn(-c2ccc(F)cc2F)c1-n1cccc1 | 1.75 | 667 | 380 |
| Cc1c(C(=O)NCc2ccc(Cl)cc2)nn(-c2ccc(Cl)c(Cl)c2)c1-n1c(C)ccc1C | 7.9 | 790 | 100 |
| COc1ccc(CCNC(=O)c2nn(-c3ccc(F)cc3F)c(-n3c(C)ccc3C)c2C)cc1Cl | > 39.8 | > 3940 | 99 |
| Cc1c(C(=O)NC2CCCCCC2)nn(-c2ccc(F)cc2F)c1-n1c(C)ccc1C | 1.96 | 110 | 56 |
| Cc1c(C(=O)NC2CCCC2)nn(-c2ccc(Cl)c(Cl)c2)c1-n1c(C)ccc1C | 0.33 | 12 | 36 |
| Cc1c(C(=O)NCCc2ccc(Cl)cc2Cl)nn(-c2ccc(F)cc2F)c1-n1c(C)ccc1C | 17.6 | 721 | 41 |
| COc1cc(CNC(=O)c2nn(-c3ccc(F)cc3F)c(-n3cccc3)c2C)c(Br)c(OC)c1OC | 2.14 | 739 | 345 |
| Cc1c(C(=O)NC(c2ccccc2)c2ccc(Cl)cc2)nn(-c2ccc(Cl)c(Cl)c2)c1-n1c(C)ccc1C (centres undefined) |  | > 3940 | > 2820 |
| Cc1c(C(=O)NC2CCCC2)nn(-c2ccc(Cl)cc2Cl)c1-n1c(C)ccc1C | 2.07 | 310 | 150 |
| Cc1c(C(=O)NCCc2ccc(Cl)cc2)nn(-c2ccc(Cl)cc2Cl)c1-n1cccc1 | > 56.2 | > 3940 | 70 |
| Cc1c(C(=O)NCCc2ccc(Cl)c(Cl)c2)nn(-c2ccc(Cl)cc2Cl)c1-n1c(C)ccc1C | > 33.4 | > 3940 | 117 |
| Cc1c(C(=O)NCc2ccc(Cl)cc2)nn(-c2ccc(Cl)cc2Cl)c1-n1c(C)ccc1C | > 43.8 | > 3940 | 90 |
| Cc1c(C(=O)NCc2ccc(Cl)cc2)nn(-c2ccc(Cl)c(Cl)c2)c1-n1cccc1 | 1.43 | 100 | 70 |
